{"source": "paper PMC6331810", "about": "“Novel Coumarin-Containing Aminophosphonatesas Antitumor Agent: Synthesis, Cytotoxicity, DNA-Binding and Apoptosis Evaluation” (Molecules, 2015)", "key": {"GelRed/CT-DNA": {"tested_on": "GelRed/CT-DNA", "assay": "GelRed-DNA competitive binding (fluorescence quenching)", "design": "species or system calf", "details": "I0/I vs [Q]; [GelRed]/[DNA] = 1:10, ex 350 nm, em 590 nm"}, "CT-DNA [1]": {"tested_on": "CT-DNA", "assay": "Spectrofluorimetric titration with CT-DNA (Stern-Volmer and binding constants)", "design": "species or system calf", "details": "from F0/F-1 vs [DNA]; Tris-HCl buffer pH 7.2", "protocol": "The DNA binding properties of compounds 8a–8j were evaluated based on their affinity or interaction with CT-DNA, measured with fluorescence spectrometric titration.\nThe calibration curve for determination of DNA was constructed by adding different proportion of DNA to a 2.0 × 10^−3 M compound 8j solution (pH = 7.2 Tris-HCl buffer). […] [Q] is the concentration of quencher. KSV is the Stern-Volmer constant and KQ is the bimolecular quenching rate constant. τ0 is the lifetime of the fluorophore in the absence of quencher and for most biomolecules τ0 is about 10^−8 s. The Stern-Volmer constant, KSV, for compound 8j has been determined from the plot of F0/F-1 vs. [DNA] (see Figure 2) and found to be 5.11 × 10^2 M^−1.\nWhen small molecules binding independently to a set of equivalent sites on a macromolecule, the equilibrium between free and bound molecules is given by the equation [28]: (2) lg (F0/F-1) = lgKb + nlg[Q] where Kb and n are the binding constant and the number of binding sites, respectively, which could be got from the curve of lg(F0/F-1) vs. lg[Q]. The plot of lg(F0/F-1) vs. lg[DNA] has been shown in Figure 3 for compound 8j and indicates a simple binding process for the compound.\nAll fluorescence experiments were carried out on a Perkin-Elmer LS50B luminescence spectrometer. Fluorescence spectra were measured at rt using quartz cells of 1cm path. To the solutions of the drugs (2.0 × 10^−3 M) in 2.5 mL Tris-HCl buffer (pH = 7.2) were added aliquots of CT-DNA (2.0 × 10^−3 M) solution containing drugs (2.0 × 10^−3 M) in 2.5 mL Tris-HCl buffer (pH = 7.2). This operation ensured that the concentration of CT-DNA increased gradually from 0 to 360 µM, while the concentrations of drugs were kept constant. The mixing was achieved by stirring for 10min. Then, the corresponding fluorescence spectra were measured (ex 325 nm, ex/em 1.5 nm/1.5 nm). Binding constants were derived from the modified."}, "[2]": {"tested_on": "MGC-803 (human lung adenocarcinoma cell line)", "assay": "MTT cytotoxicity assay, MGC-803", "assay_type": "cell-based", "details": "48 h, no irradiation, mean ± SD of three experiments", "protocol": "(§1) Cell Lines. The following in vitro human cancer cell lines were used: HCT-116 (Human colorectal cells), human KB (human nasopharyngeal carcinoma cells), MGC-803 (human lung adenocarcinoma cell line), HUVEC (Human Umbilical Vein Endothelial Cells). The cell lines (HCT-116, KB, MGC-803 and HUVEC) were purchased from the Cell Resource Center of Shanghai Institutes for Biological Sciences, the Academy of Sciences of China.\n(§2) Cell Culture. HCT-116, human KB, MGC-803 and HUVEC cells were cultured in Dulbecco Modified Eagle Medium (DMEM; HyClone, Los Angeles, CA, USA), containing 4.0 mM L-Glutamine and 4500 mg/L Glucose, supplemented with 10% (v/v) foetalbovine serum (FBS; HyClone). The cell culturemedia was supplemented with penicillin/streptomycin at 100 Units/mL as adherent monolayers. Cell cultures were kept in a humidified incubator with 5% CO2 at 37 °C. Stock solutions were prepared in dimethyl sulfoxide (DMSO) and further dilutions were made with fresh culture medium. The concentration of DMSO in the final culture medium was 1%, which had no effect on the cell viability.\n(§3) MTT Assay. Chemosensitivity was assessed using 3-(4,5-dimethylthiazol-2-yl)-2,5-diphenyl tetrazolium bromide (MTT) assay. Briefly, exponentially growing HCT-116 (3000–4000 cells/well), human KB (2000–3000 cells/well) and MGC 803 (2000–3000 cells/well) were seeded into 96-well plates and treated with indicated concentrations of samples for 48 h, and then […] of MTT (10 mg/mL) was added. After incubation for 4 h at 37 °C, the purple formazan crystals (i.e., a reduced form of MTT) generated from viable cells were dissolved by adding 100 μL DMSO in each well. The plates were swirled gently for 10 min to dissolve the precipitate, and quantified by measuring the optical density (OD) of the plates at a wavelength of 490 nm on plate reader (TECAN infinite M1000). Each concentration was repeated in three wells and the same experimental conditions were provided for all compounds and MTT analysis was repeated three times for each cell line."}, "[3]": {"tested_on": "HCT-116 (Human colorectal cells)", "assay": "MTT cytotoxicity assay, HCT-116", "assay_type": "cell-based", "details": "MTT, 48 h, no irradiation, mean ± SD of three experiments", "protocol": "as §1, §2, §3"}, "[4]": {"tested_on": "HUVEC (Human Umbilical Vein Endothelial Cells)", "assay": "MTT cytotoxicity assay, HUVEC normal cells", "assay_type": "cell-based", "details": "no irradiation, mean ± SD of three experiments", "protocol": "as §1, §2, §3"}, "CT-DNA [5]": {"tested_on": "CT-DNA", "assay": "Circular dichroism spectra of CT-DNA", "assay_type": "binding, calf", "details": "[compound]/[DNA] 1:10; 1.5 × 10^−4 M DNA, 1.5 × 10^−5 M compound", "protocol": "CD absorption spectra of DNA were measured in TBS at a 100 nm/min scan rate in the wavelength range from 200 to 500 nm, with 1.5 × 10^−4 M DNA in the absence and presence of each compound of 1.5 × 10^−5 M, respectively. The CD signal of TBS was taken as the background and subtracted from the spectra. All the spectroscopic experiments were performed at 25 °C."}}}
{"smiles": "CCOP(=O)(OCC)C(NC(=O)CCOc1ccc2c(C)cc(=O)oc2c1)c1ccccc1OC", "note": "(stereo not shown) [Compound 8h, Diethyl(3-(4-methyl-2-oxo-2H-chromen-7-yloxy)propanamido)(2-methoxyphenyl)methylphos-phonate]", "values": [{"measurement": "Kq (quenching constant of GelRed bound to DNA)", "setting": "GelRed/CT-DNA", "result": 2410, "unit": "M⁻¹"}, {"measurement": "KSV (Stern-Volmer constant)", "setting": "CT-DNA [1]", "result": 357, "unit": "M⁻¹"}, {"measurement": "IC50", "setting": "[2]", "result": "36.9 ± 1.96", "unit": "µM"}, {"measurement": "IC50", "setting": "[3]", "result": "23.7 ± 5.89", "unit": "µM"}, {"measurement": "IC50", "setting": "[4]", "result": "> 100", "unit": "µM"}, {"measurement": "Negative AI decrease (CD absorption peak of CT-DNA at 247 nm)", "setting": "CT-DNA [5]", "result": 28.5, "unit": "%"}, {"measurement": "Positive AI decrease (CD absorption peak of CT-DNA at 281 nm)", "setting": "CT-DNA [5]", "result": 34.5, "unit": "%"}]}
